Reference: ChEMBL document CHEMBL1201862, “PubChem BioAssay data set” (2004)
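Results reflect a 48-hour exposure of cells in 96-well plates to compound at five concentrations. GI50 is the concentration that inhibits growth by half.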 Calls of active or inactive are those of the source. No stated cut-off is given here; in the data, active = GI50 up to about 1.1 µM and inactive = higher.

Key:
Test in all cases: NCI tumour cell line growth inhibition, 48 h
786-0 = tested on: 786-0
Malme-3M = tested on: Malme-3M
RPMI-8226 = tested on: RPMI-8226
OVCAR-8 = tested on: OVCAR-8
LOX IMVI = tested on: LOX IMVI
SNB-78 = tested on: SNB-78
CCRF-CEM = tested on: CCRF-CEM
OVCAR-4 = tested on: OVCAR-4
U-251 = tested on: U-251
SNB-19 = tested on: SNB-19
COLO 205 = tested on: COLO 205
ACHN = tested on: ACHN
SR = tested on: SR
HCT-15 = tested on: HCT-15
SN12C = tested on: SN12C
M14 = tested on: M14

| Structure (SMILES) | GI50 (786-0) | GI50 (Malme-3M) | GI50 (RPMI-8226) | GI50 (OVCAR-8) | GI50 (LOX IMVI) | GI50 (SNB-78) | GI50 (CCRF-CEM) | GI50 (OVCAR-4) | GI50 (U-251) | GI50 (SNB-19) | GI50 (COLO 205) | GI50 (ACHN) | GI50 (SR) | GI50 (HCT-15) [µM] | GI50 (SN12C) | GI50 (M14) |
| --- | --- | --- | --- | --- | --- | --- | --- | --- | --- | --- | --- | --- | --- | --- | --- | --- |
| CC(=O)OC[C@]1(O)CC[C@@]23CC1C[C@@H]2CCC1C(C)(C)CCC[C@@]13C (stereo not given in full) | 17.3 µM (inactive) | 15.6 µM (inactive) | 9.23 µM (inactive) | 16.6 µM (inactive) | 11.1 µM (inactive) | 16.1 µM (inactive) | 10.1 µM (inactive) | 15.9 µM (inactive) | 14 µM (inactive) | 14.5 µM (inactive) | 17.8 µM (inactive) | 15.7 µM (inactive) | 8.89 µM (inactive) | 15.8 | 12.2 µM (inactive) | 13.9 µM (inactive) |
| Cc1ccc(S(=O)(=O)N2CCC3(C(/C=C/c4ccccc4)=Nc4ccccc43)C2c2ccccc2)cc1 (stereo not given) | > 100 µM (inactive) | > 100 µM (inactive) | > 100 µM (inactive) | > 100 µM (inactive) | > 100 µM (inactive) | > 100 µM (inactive) | > 100 µM (inactive) | > 100 µM (inactive) | > 100 µM (inactive) | > 100 µM (inactive) | > 100 µM (inactive) | > 100 µM (inactive) | > 100 µM (inactive) | > 100 | > 100 µM (inactive) | > 100 µM (inactive) |
| COC(=O)OCC1OC(N2C(=O)NC(=O)C(Br)C2N=[N+]=[N-])CC1OC(=O)OC (stereo not given) | > 100 µM (inactive) | > 100 µM (inactive) | > 100 µM (inactive) | > 100 µM (inactive) | > 100 µM (inactive) | > 100 µM (inactive) | > 100 µM (inactive) | > 100 µM (inactive) | > 100 µM (inactive) | > 100 µM (inactive) | > 100 µM (inactive) | > 100 µM (inactive) | – | > 100 | > 100 µM (inactive) | > 100 µM (inactive) |
| C=C(C)CCOC(c1ccccc1)(c1ccccc1)c1ccccc1 | > 100 µM (inactive) | 28.4 µM (inactive) | 33.9 µM (inactive) | 73.5 µM (inactive) | 25.2 µM (inactive) | 70.1 µM (inactive) | 61.4 µM (inactive) | 34.7 µM (inactive) | 50 µM (inactive) | > 100 µM (inactive) | 55.1 µM (inactive) | 25.7 µM (inactive) | – | 47.3 | 69 µM (inactive) | 32.8 µM (inactive) |
| N#C/C(=C1\OC(=N)C(c2ccc(Cl)cc2)=C1O)c1ccc(Cl)cc1 | 16 µM (inactive) | 19.1 µM (inactive) | 19 µM (inactive) | 13.5 µM (inactive) | 16 µM (inactive) | 12.8 µM (inactive) | 12.8 µM (inactive) | 15.9 µM (inactive) | 15.3 µM (inactive) | 19.6 µM (inactive) | 18.8 µM (inactive) | 17.6 µM (inactive) | 18.7 µM (inactive) | – | 11 µM (inactive) | 15.2 µM (inactive) |
| COc1ccc(-c2[nH]c3ccccc3c2CCNS(=O)(=O)c2ccc(C)cc2)cc1 | > 10 µM (inactive) | > 10 µM (inactive) | 4.68 µM (inactive) | > 7.91 µM (inactive) | > 10 µM (inactive) | > 10 µM (inactive) | 3.72 µM (inactive) | – | 8.09 µM (inactive) | > 10 µM (inactive) | 1.83 µM (inactive) | > 8.59 µM (inactive) | > 10 µM (inactive) | 7.6 | > 10 µM (inactive) | > 10 µM (inactive) |
| Sc1nnc(-c2cccnc2)[nH]1 | > 100 µM (inactive) | > 100 µM (inactive) | > 100 µM (inactive) | – | > 100 µM (inactive) | > 100 µM (inactive) | > 100 µM (inactive) | – | > 100 µM (inactive) | > 100 µM (inactive) | > 100 µM (inactive) | > 100 µM (inactive) | > 100 µM (inactive) | > 100 | > 100 µM (inactive) | > 100 µM (inactive) |
| CC1CC2C(=O)N(c3ccccc3)C(=O)C2c2[nH]c3ccccc3c21 (stereo not given) | 50.2 µM (inactive) | 46.1 µM (inactive) | 37.6 µM (inactive) | 59.3 µM (inactive) | 45.5 µM (inactive) | > 100 µM (inactive) | 35.6 µM (inactive) | 41.8 µM (inactive) | 38.8 µM (inactive) | – | 73.3 µM (inactive) | 57.7 µM (inactive) | 29.2 µM (inactive) | > 100 | > 100 µM (inactive) | 78.9 µM (inactive) |
| Cc1ccc(C)c(NC(=O)CC/C(=N\NC(=O)C(N)=O)C(C)C(=O)c2ccc(O)cc2)c1 (stereo not given) | > 100 µM (inactive) | > 100 µM (inactive) | – | > 100 µM (inactive) | > 100 µM (inactive) | > 100 µM (inactive) | > 100 µM (inactive) | > 100 µM (inactive) | > 100 µM (inactive) | > 100 µM (inactive) | > 100 µM (inactive) | > 100 µM (inactive) | > 100 µM (inactive) | > 100 | > 100 µM (inactive) | > 100 µM (inactive) |
| CN(C)c1ccc(/C=C2\Cc3ccccc3C2=O)cc1Br | 54.1 µM (inactive) | 31.8 µM (inactive) | 24.1 µM (inactive) | 63.5 µM (inactive) | – | 59.8 µM (inactive) | 34.1 µM (inactive) | 41.8 µM (inactive) | 53.3 µM (inactive) | > 100 µM (inactive) | 92.9 µM (inactive) | 45.8 µM (inactive) | – | 35.7 | 51.5 µM (inactive) | 54.6 µM (inactive) |
| Cc1nc(Nc2ccc(Cl)cc2)sc1C(=O)NNC(=S)NN | 16.6 µM (inactive) | 19.7 µM (inactive) | 29 µM (inactive) | 21.3 µM (inactive) | 14.5 µM (inactive) | 19.5 µM (inactive) | 29.1 µM (inactive) | 17.7 µM (inactive) | 17.5 µM (inactive) | 18.9 µM (inactive) | 21.6 µM (inactive) | 19.5 µM (inactive) | – | 20.4 | 18.1 µM (inactive) | 19.7 µM (inactive) |
| C=CC(=O)NCCSCCCOC1(C(=O)O)CC(O)C(NC(C)=O)C(C(O)C(O)CO)O1 (stereo not given) | > 100 µM (inactive) | > 100 µM (inactive) | > 100 µM (inactive) | > 100 µM (inactive) | > 100 µM (inactive) | > 100 µM (inactive) | – | > 100 µM (inactive) | > 100 µM (inactive) | > 100 µM (inactive) | > 100 µM (inactive) | > 100 µM (inactive) | > 100 µM (inactive) | > 100 | > 100 µM (inactive) | > 100 µM (inactive) |
| CCc1ccccc1NC(=O)C(=O)C(C(=O)c1ccc(OC)cc1)c1ccc(OC)cc1 (stereo not given) | > 100 µM (inactive) | > 100 µM (inactive) | > 100 µM (inactive) | > 100 µM (inactive) | > 100 µM (inactive) | > 100 µM (inactive) | > 100 µM (inactive) | > 100 µM (inactive) | > 100 µM (inactive) | > 100 µM (inactive) | > 100 µM (inactive) | > 100 µM (inactive) | – | > 100 | > 100 µM (inactive) | > 100 µM (inactive) |
